IC50 data for 30 compounds are collected here from patent publication US9243002B2, “Tetracyclic heterocycle compounds and methods of use thereof for the treatment of hepatitis C” (priority 2013, dated 2016).

The subject of one assay is HCV genotype 1a replicon. The assay can be described thus: HCV replicon assay, genotype 1a (cell ELISA for NS3/4A). The assay is classed as cell-based, hepatitis C virus. The gist of the method:
(§1)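 Stable replicon cells plated with a compound dilution series without G418 and incubated 96 h, then lysed. Replicon RNA measured indirectly by cell ELISA with an NS3/4A-specific antibody. IC50 calculated relative to DMSO control by four-parameter fit.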

The test system of the next assay is HCV genotype 1b replicon. The assay can be described thus: HCV replicon assay, genotype 1b (cell ELISA for NS3/4A). It is filed as cell-based, hepatitis C virus. The procedure, abridged: as §1
Setting [1] is: Hepatitis C virus, 96 h, read-out: 1a IC50 (nM), genotype 1a replicon cells, 96 hours incubation, NS3/4A ELISA.
[2] abbreviates: Hepatitis C virus, 96 h, read-out: 1b IC50 (nM), genotype 1b replicon cells, 96 hours incubation, NS3/4A ELISA.
Setting [3] is: read-out: 1a IC50, genotype 1a replicon cells, 96 hours incubation, NS3/4A ELISA.

The structures appear in SMILES notation. Where two headings read alike, the source gives them in different places.

For the compound `CNC(=O)c1c(-c2ccc(F)cc2)oc2cc(N(C)S(C)(=O)=O)c(-c3ccc4c(n3)-c3cc5c(F)cccc5n3CC(O)C4)cc12` (stereo not drawn) [Example 69], the IC50 came to 2.3 nM in the assay with HCV genotype 1a replicon (setting [1]) and 2.95 nM with HCV genotype 1b replicon (setting [2]).

For `CNC(=O)c1c(-c2ccn[nH]2)oc2cc(N(C)S(C)(=O)=O)c(-c3ccc4c(n3)-c3cc5c(F)cccc5n3CC4)cc12` [Example 25], the IC50 is 287 nM with HCV genotype 1a replicon (setting [1]) and 99.4 nM in the assay with HCV genotype 1b replicon (setting [2]).

`CNC(=O)c1c(-c2ccc(F)cc2)oc2cc(N(C)S(C)(=O)=O)c(-c3ccc4c(n3)-c3cc5c(C#N)cccc5n3CCC4)cc12` [Example 73]: the IC50 in the assay on HCV genotype 1a replicon (setting [1]) is 2.01 nM; with HCV genotype 1b replicon (setting [2]), 2.78 nM.

`CNC(=O)c1c(-c2cnc(C)c(F)c2)oc2cc(N(C)S(C)(=O)=O)c(-c3ccc4c(n3)-c3cc5c(F)cccc5n3CC4)cc12` [Example 14]: the IC50 in the assay with HCV genotype 1a replicon (setting [1]) is 26.4 nM; in the assay with HCV genotype 1b replicon (setting [2]), 24.3 nM.

For `CNC(=O)c1c(-c2c(C)n[nH]c2C)oc2cc(N(C)S(C)(=O)=O)c(-c3ccc4c(n3)-c3cc5c(F)cccc5n3CC4)cc12` [Example 26], the IC50 in the assay on HCV genotype 1a replicon (setting [1]) came out at 69.3 nM; with HCV genotype 1b replicon (setting [2]), 84.4 nM.

For the compound `CNC(=O)c1c(-c2ccc(C)nc2)oc2cc(N(C)S(C)(=O)=O)c(-c3ccc4c(n3)-c3cc5c(F)cccc5n3CC(N3CC(F)C3)C4)cc12` (stereo not drawn) [Example 71], the IC50 worked out at 41.7 nM in the assay with HCV genotype 1a replicon (setting [1]) and 42.2 nM in the assay with HCV genotype 1b replicon (setting [2]).

Take `CNC(=O)c1c(-c2ccc(F)cc2)oc2nc(N(C)S(C)(=O)=O)c(-c3ccc4c(n3)-c3cc5c(F)cccc5n3CC4)cc12` [Example 45, 5-(11-fluoro-5,6-dihydroindolo[1,2-h][1,7]naphthyridin-2-yl)-2-(4-fluorophenyl)-N-methyl-6-(N-methylmethylsulfonamido)furo[2,3-b]pyridine-3-carboxamide]: the IC50 with HCV genotype 1a replicon (setting [1]) was 4.29 nM; in the assay with HCV genotype 1b replicon (setting [2]), 8.72 nM.

As for `CNC(=O)c1c(-c2cnc(C)s2)oc2cc(N(C)S(C)(=O)=O)c(-c3ccc4c(n3)-c3cc5c(F)cccc5n3CC4)cc12` [Example 36, 5-(11-fluoro-5,6-dihydroindolo[1,2-h][1,7]naphthyridin-2-yl)-N-methyl-6-(N-methylmethylsulfonamido)-2-(2-methylthiazol-5-yl)benzofuran-3-carboxamide], the IC50 came to 10.3 nM in the assay with HCV genotype 1a replicon (setting [1]) and 10.2 nM in the assay on HCV genotype 1b replicon (setting [2]).

As for `CNC(=O)c1c(-n2cc(C(F)(F)F)cn2)oc2cc(N(C)S(C)(=O)=O)c(-c3ccc4c(n3)-c3cc5c(F)cccc5n3CC4)cc12` [Example 33], the IC50 stood at 170 nM in the assay with HCV genotype 1a replicon (setting [1]) and 23.6 nM in the assay with HCV genotype 1b replicon (setting [2]).

Consider `CNC(=O)c1c(-c2ccc(F)cc2)oc2cc(N(C)S(C)(=O)=O)c(-c3ccc4c(n3)-c3cc5c(F)cccc5n3CC43CC3)cc12` [Example 97, 5-(11′-fluoro-6′H-spiro[cyclopropane-1,5′-indolo[1,2-h][1,7]naphthyridin]-2′-yl)-2-(4-fluorophenyl)-N-methyl-6-(N-methylmethylsulfonamido)benzofuran-3-carboxamide], for which the IC50 with HCV genotype 1a replicon (setting [1]) amounted to 10.7 nM; in the assay on HCV genotype 1b replicon (setting [2]), 9.98 nM.

For `CNC(=O)c1c(-c2ccc(F)cc2F)oc2cc(N(C)S(C)(=O)=O)c(-c3ccc4ccn5c6cccc(F)c6cc5c4n3)cc12` [Example 84], the IC50 worked out at 4.28 nM with HCV genotype 1a replicon (setting [1]) and 6.41 nM in the assay on HCV genotype 1b replicon (setting [2]).

As for `CNC(=O)c1c(-c2ccc(F)cc2)oc2cc(N(C)S(C)(=O)=O)c(-c3cc4c(cn3)CCn3c-4cc4c(F)cccc43)cc12` [Example 39, 5-(11-fluoro-5,6-dihydroindolo[2,1-a][2,6]naphthyridin-2-yl)-2-(4-fluorophenyl)-N-methyl-6-(N-methylmethylsulfonamido)benzofuran-3-carboxamide], the IC50 in the assay with HCV genotype 1a replicon (setting [1]) worked out at 2.71 nM; in the assay with HCV genotype 1b replicon (setting [2]), 2.83 nM.

Turning to `CNC(=O)c1c(-c2ccc(C)nc2)oc2cc(N(C)S(C)(=O)=O)c(-c3ccc4c(n3)-c3cc5c(F)cccc5n3C(CCN3CC(F)C3)C4)cc12` (stereo not drawn) [Example 67], the IC50 stood at 12.5 nM in the assay on HCV genotype 1a replicon (setting [3]) and 16.4 nM in the assay on HCV genotype 1b replicon (read-out: 1b IC50, genotype 1b replicon cells, 96 hours incubation, NS3/4A ELISA).

As for `CNC(=O)c1c(C2CC2)oc2cc(N(C)S(C)(=O)=O)c(-c3ccc4c(n3)-c3cc5c(F)cccc5n3CC4)cc12` [Example 16], the IC50 is 27 nM in the assay on HCV genotype 1a replicon (setting [1]) and 14.6 nM in the assay on HCV genotype 1b replicon (setting [2]).

On to `CNC(=O)c1c(-c2ccc(C)nc2)oc2cc(N(C)S(C)(=O)=O)c(-c3ccc4c(n3)-c3cc5c(F)cccc5n3CC4)cc12` [Example 7], for which the results for the IC50 with HCV genotype 1a replicon (setting [1]) and in the assay with HCV genotype 1b replicon (setting [2]) were 17.6 nM and 6.79 nM, respectively.

Regarding `CNC(=O)c1c(-c2ccc(F)cc2)oc2cc(N(C)S(C)(=O)=O)c(-c3ccc4ccn5c6ccc(OC)nc6cc5c4n3)cc12` [Example 80], the figures for the IC50 in the assay with HCV genotype 1a replicon (setting [1]) and in the assay with HCV genotype 1b replicon (setting [2]) were 27.7 nM and 9.77 nM, respectively.

`CNC(=O)c1c(-c2ccc(F)cc2)oc2cc(N(C)S(C)(=O)=O)c(-c3ccc4c(n3)-c3cc5c(F)cccc5n3CCC4)cc12` [Example 72, 5-(12-fluoro-6,7-dihydro-5H-pyrido[2′,3′:3,4]azepino[1,2-a]indol-2-yl)-2-(4-fluorophenyl)-N-methyl-6-(N-methylmethylsulfonamido)benzofuran-3-carboxamide]: the IC50 in the assay with HCV genotype 1a replicon (setting [1]) was 3.71 nM; in the assay with HCV genotype 1b replicon (setting [2]), 4.29 nM.

For the compound `CNC(=O)c1c(-c2ccc(F)cc2F)oc2cc(N(C)S(C)(=O)=O)c(-c3ccc4c(n3)-c3cc5c(F)cccc5n3CC4)cc12` [Example 30, 2-(2,4-difluorophenyl)-5-(11-fluoro-5,6-dihydroindolo[1,2-h][1,7]naphthyridin-2-yl)-N-methyl-6-(N-methylmethylsulfonamido)benzofuran-3-carboxamide], the IC50 stood at 2.49 nM in the assay on HCV genotype 1a replicon (setting [1]) and 3.81 nM with HCV genotype 1b replicon (setting [2]).

As for `CNC(=O)c1c(-c2ccc(F)cc2)oc2cc(N(C)S(C)(=O)=O)c(-c3ccc4c(n3)-c3cc5c(F)cccc5n3C(CCO)C4)cc12` (stereo not drawn) [Example 65, 5-(11-fluoro-6-(2-hydroxyethyl)-5,6-dihydroindolo[1,2-h][1,7]naphthyridin-2-yl)-2-(4-fluorophenyl)-N-methyl-6-(N-methylmethylsulfonamido)benzofuran-3-carboxamide], the IC50 in the assay with HCV genotype 1a replicon (setting [1]) worked out at 3.62 nM; in the assay with HCV genotype 1b replicon (setting [2]) it was 3.96 nM.

`CNC(=O)c1c(-c2ccc(F)cc2)oc2cc(N(C)S(C)(=O)=O)c(-c3ccc4c(n3)-c3cc5c(F)cccc5n3CCCC4)cc12` [Example 99, 5-(13-fluoro-5,6,7,8-tetrahydropyrido[2′,3′:3,4]azocino[1,2-a]indol-2-yl)-2-(4-fluorophenyl)-N-methyl-6-(N-methylmethylsulfonamido)benzofuran-3-carboxamide]: the IC50 was determined as 6.5 nM in the assay on HCV genotype 1a replicon (setting [1]) and 7.17 nM with HCV genotype 1b replicon (setting [2]).

As for `CNC(=O)c1c(-c2ccc(F)cc2)oc2cc(N(C)S(C)(=O)=O)c(-c3ccc4ccn5c6ccc(O)nc6cc5c4n3)cc12` [Example 81], the IC50 came to 196 nM with HCV genotype 1a replicon (setting [1]) and 33.9 nM with HCV genotype 1b replicon (setting [2]).

As for `CNC(=O)c1c(-c2ccc(F)cc2Cl)oc2cc(N(C)S(C)(=O)=O)c(-c3ccc4c(n3)-c3cc5c(F)cccc5n3CC4)cc12` [Example 12], the figures for the IC50 in the assay with HCV genotype 1a replicon (setting [1]) and in the assay on HCV genotype 1b replicon (setting [2]) were 4.59 nM and 10.6 nM, respectively.

On to `CNC(=O)c1c2cc(-c3ccc4c(n3)-c3cc5c(F)cccc5n3CC4)c(N(C)S(C)(=O)=O)cc2nn1-c1ccc(F)cc1` [Example 47, 5-(11-fluoro-5,6-dihydroindolo[1,2-h][1,7]naphthyridin-2-yl)-2-(4-fluorophenyl)-N-methyl-6-(N-methylmethylsulfonamido)-2H-indazole-3-carboxamide], for which the IC50 with HCV genotype 1a replicon (setting [1]) was found to be 14.5 nM; in the assay on HCV genotype 1b replicon (setting [2]), 8.46 nM.

For `CNC(=O)c1c(-c2ccc(F)cc2)oc2cc(N(C)S(C)(=O)=O)c(-c3ncc4c(n3)-c3cc5c(F)cccc5n3CC4)cc12` [Example 63, 5-(11-fluoro-5,6-dihydropyrimido[4′,5′:3,4]pyrido[1,2-a]indol-2-yl)-2-(4-fluorophenyl)-N-methyl-6-(N-methylmethylsulfonamido)benzofuran-3-carboxamide], the IC50 worked out at 4.34 nM in the assay on HCV genotype 1a replicon (setting [1]) and 3.28 nM in the assay on HCV genotype 1b replicon (setting [2]).

As to `CNC(=O)c1c(-c2ccc(C(F)F)nc2)oc2cc(N(C)S(C)(=O)=O)c(-c3ccc4c(n3)-c3cc5c(F)cccc5n3CC4)cc12` [Example 3], the IC50 in the assay with HCV genotype 1a replicon (setting [1]) was 7.94 nM; in the assay on HCV genotype 1b replicon (setting [2]), 6.69 nM.

For `CNC(=O)c1c(-c2ccc(F)cc2)oc2cc(N(C)S(C)(=O)=O)c(-c3ccc4c(n3)-c3cc5c(F)cccc5n3C4O)cc12` (stereo not drawn) [Example 87, 5-(10-fluoro-5-hydroxy-5H-pyrido[2′,3′:3,4]pyrrolo[1,2-a]indol-2-yl)-2-(4-fluorophenyl)-N-methyl-6-(N-methylmethylsulfonamido)benzofuran-3-carboxamide], the IC50 was found to be 7.69 nM in the assay with HCV genotype 1a replicon (setting [1]) and 7.29 nM in the assay with HCV genotype 1b replicon (setting [2]).

`CNC(=O)c1c(-c2ccc(F)cc2)oc2cc(N(C)S(C)(=O)=O)c(-c3ccc4c(n3)-c3cc5c(F)cccc5n3C(=O)CC4)cc12` [Example 74, 5-(12-fluoro-7-oxo-6,7-dihydro-5H-pyrido[2′,3′:3,4]azepino[1,2-a]indol-2-yl)-2-(4-fluorophenyl)-N-methyl-6-(N-methylmethylsulfonamido)benzofuran-3-carboxamide]: the IC50 was determined as 8.2 nM with HCV genotype 1a replicon (setting [1]) and 11.4 nM in the assay with HCV genotype 1b replicon (setting [2]).

For `CNC(=O)c1c(-c2ccc(F)cc2)oc2cc(N(C)S(C)(=O)=O)c(-c3ccc4c(n3)-c3cc5c(F)cccc5n3C(CO)C4)cc12` (stereo not drawn) [Example 52], the values for the IC50 in the assay on HCV genotype 1a replicon (setting [3]) and in the assay with HCV genotype 1b replicon (setting [2]) were 3.35 nM and 2.32 nM, respectively.

For the compound `CNC(=O)c1c(-c2cnn(CCO)c2)oc2cc(N(C)S(C)(=O)=O)c(-c3ccc4c(n3)-c3cc5c(F)cccc5n3CC4)cc12` [Example 23], the IC50 in the assay with HCV genotype 1a replicon (setting [1]) turned out to be 212 nM; with HCV genotype 1b replicon (setting [2]), 83.2 nM.

Consider `CNC(=O)c1c(-c2ccc(F)cc2)oc2cc(N(C)S(C)(=O)=O)c(-c3ccc4ccn5c6cccc(F)c6cc5c4n3)cc12` [Example 82, 5-(11-fluoroindolo[1,2-h][1,7]naphthyridin-2-yl)-2-(4-fluorophenyl)-N-methyl-6-(N-methylmethylsulfonamido)benzofuran-3-carboxamide], for which the IC50 was determined as 2.88 nM in the assay on HCV genotype 1a replicon (setting [1]) and 5.54 nM in the assay on HCV genotype 1b replicon (setting [2]).
